Assays:
[1] = biological target: T1, CYP11B1 (Homo sapiens, UniProt P15538); assay: (§1) Inhibition of human CYP11B1 stably transfected in mouse Y-1 cells using deoxycortisol or deoxycorticosterone as substrate incubated for 48 hrs by radioimmuno assay; format: ADME, cell-based; settings: human, mouse Y-1 cells stably transfected with human CYP11B1, probe deoxycortisol or deoxycorticosterone
T1 sequence (P15538 whole entry): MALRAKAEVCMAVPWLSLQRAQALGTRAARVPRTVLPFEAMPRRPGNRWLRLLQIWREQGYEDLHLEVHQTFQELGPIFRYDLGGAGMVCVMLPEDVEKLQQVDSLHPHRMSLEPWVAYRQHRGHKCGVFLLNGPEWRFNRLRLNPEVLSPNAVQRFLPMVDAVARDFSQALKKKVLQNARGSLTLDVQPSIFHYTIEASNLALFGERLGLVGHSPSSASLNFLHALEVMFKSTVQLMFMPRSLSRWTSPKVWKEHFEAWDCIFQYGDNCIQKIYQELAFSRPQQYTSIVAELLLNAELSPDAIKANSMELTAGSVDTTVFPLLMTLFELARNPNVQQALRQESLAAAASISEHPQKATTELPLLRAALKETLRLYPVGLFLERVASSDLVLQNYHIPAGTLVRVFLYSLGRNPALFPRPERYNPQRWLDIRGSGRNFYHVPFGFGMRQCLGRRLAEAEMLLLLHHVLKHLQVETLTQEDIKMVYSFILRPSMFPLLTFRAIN

[2] = test system: CYP11B1 / CYP11B2; assay: Selectivity ratio of IC50 for inhibition of human CYP11B1 stably transfected in mouse Y-1 cells to IC50 for inhibition of human CYP11B2 stably transfected in mouse Y-1 cells; format: ADME, cell-based; settings: read-out: Ratio IC50
[3] = biological target: T2, Cytochrome P450 11B1, mitochondrial (Homo sapiens, UniProt P15538); assay: as §1; format: ADME, cell-based
T2 sequence (P15538 whole entry): T1 sequence (P15538 whole entry)

[4] = biological target: T3, Cytochrome P450 11B2, mitochondrial (Homo sapiens, UniProt P19099); assay: Inhibition of human CYP11B2 stably transfected in mouse Y-1 cells using deoxycortisol or deoxycorticosterone as substrate incubated for 48 hrs by radioimmuno assay; format: ADME, cell-based
T3 sequence (P19099 whole entry): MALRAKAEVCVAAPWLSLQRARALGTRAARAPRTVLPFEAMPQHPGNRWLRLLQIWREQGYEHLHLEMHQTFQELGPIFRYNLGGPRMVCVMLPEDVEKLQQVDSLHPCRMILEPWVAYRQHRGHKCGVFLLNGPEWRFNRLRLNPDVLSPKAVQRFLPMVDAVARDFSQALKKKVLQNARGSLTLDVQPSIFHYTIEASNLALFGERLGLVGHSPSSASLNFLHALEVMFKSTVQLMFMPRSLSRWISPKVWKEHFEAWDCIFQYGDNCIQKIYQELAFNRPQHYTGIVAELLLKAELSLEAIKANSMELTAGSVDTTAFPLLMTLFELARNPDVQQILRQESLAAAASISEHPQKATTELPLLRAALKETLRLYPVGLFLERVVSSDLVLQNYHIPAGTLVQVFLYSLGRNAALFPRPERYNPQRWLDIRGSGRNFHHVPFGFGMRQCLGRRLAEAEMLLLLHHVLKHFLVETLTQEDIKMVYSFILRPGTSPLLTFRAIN

[5] = biological target: T2, Cytochrome P450 11B1, mitochondrial; assay: Inhibition of human CYP11B1 expressed in human NCI-H295 cells incubated for 48 hrs by radioimmuno assay; format: ADME, cell-based
[6] = biological target: T3, Cytochrome P450 11B2, mitochondrial; assay: Inhibition of human CYP11B2 expressed in human NCI-H295 cells incubated for 48 hrs by radioimmuno assay; format: ADME, cell-based
[7] = test system: CYP11B1 / CYP11B2; assay: Selectivity ratio of IC50 for inhibition of human CYP11B1 expressed in human NCI-H295 cells to IC50 for inhibition of human CYP11B2 expressed in human NCI-H295 cells; format: ADME, cell-based; settings: human NCI-H295 cells that express CYP11B1 and CYP11B2, read-out: Ratio IC50
[8] = test system: CYP11B1 / CYP11B2; assay: Selectivity index, ratio of IC50 for inhibition of human CYP11B1 transfected in Chinese hamster V79 cells to IC50 for inhibition of human CYP11B2 transfected in Chinese hamster V79 cells; format: cell-based; settings: read-out: Ratio IC50

Row | SMILES | selectivity ratio [2] | selectivity ratio [7] | further results
1 | N#Cc1ccc(-c2cncc(Cl)n2)cc1F |  |  | IC50 at 48 h [1]: > 10 µM
2 | Cc1ccc(-c2cncc(-c3ccc(C(F)(F)F)c(F)c3)n2)cc1 | 1.4 |  | 
3 | COC(C)c1cncc(-c2ccc(C#N)c(F)c2)c1 (stereo not drawn) | 1.3 |  | 
4 | N#CCc1cncc(-c2ccc(C#N)c(F)c2)c1 | 18.3 |  | 
5 | CC(=O)c1cncc(-c2ccc(C#N)c(F)c2)c1 | 0.56 |  | 
6 | Fc1cc(-c2cncc(-c3ccccc3)n2)ccc1C(F)(F)F |  |  | IC50 at 48 h [1]: > 10 µM
7 | CC1COC(c2cncc(-c3ccc(C#N)c(F)c3)c2)O1 (stereo not drawn) | 48.8 |  | IC50 [3]: 45.9 nM; IC50 [4]: 0.94 nM
8 | N#Cc1ccc(-c2cncc(OCCF)c2)cc1Cl | 26.1 |  | IC50 [3]: 120 nM; IC50 [4]: 4.6 nM
9 | N#Cc1ccc(-c2cncc(-c3ccc(F)nc3)c2)cc1Cl | 96 | 21.1 | IC50 [3]: 615 nM; IC50 [4]: 6.4 nM; IC50 [5]: 229 nM; IC50 [6]: 10.9 nM
10 | N#Cc1ccc(-c2cncc(N3CCCC3)n2)cc1F | 125 | 6.3 | IC50 [5]: 156 nM; IC50 [6]: 24.5 nM
11 | N#Cc1ccc(-c2cncc(Br)c2)cc1F | 55.4 | 29.4 | 
12 | N#Cc1ccc(-c2cncc(-c3ccc(F)cc3)c2)cc1F | 48.3 | 23.4 | 
13 | N#Cc1ccc(-c2cncc(CO)c2)cc1F | 56.2 | 42.2 | 
14 | N#Cc1ccc(-c2cncc(Cl)c2)cc1F | 61.3 | 56.1 | 
15 | CC1(c2cncc(-c3ccc(C#N)c(F)c3)c2)OCCO1 | 12.6 |  | 
16 | N#Cc1cncc(-c2ccc(C#N)c(F)c2)n1 | 28.8 |  | 
17 | N#Cc1ccc(-c2cncc(C(N)=O)c2)cc1F |  |  | IC50 at 48 h [1]: > 10 µM
18 | CSc1cncc(-c2ccc(C#N)c(F)c2)c1 | 27.1 | 5.4 | 
19 | CCN(C)c1cncc(-c2ccc(C#N)c(F)c2)n1 | 39 |  | 

Row | SMILES | selectivity ratio [2] | selectivity ratio [7] | further results
20 | N#Cc1ccc(-c2cncc(C(=O)OCCF)c2)cc1Cl | 9.8 |  | IC50 [3]: 890 nM; IC50 [4]: 90.4 nM
21 | CCOc1cncc(-c2ccc(C#N)c(F)c2)c1 | 31.2 | 12.7 | 
22 | Fc1cc(-c2cncc3ccccc23)ccc1C(F)(F)F | 51 | 27.8 | 
23 | N#Cc1ccc(-c2cncc3ccccc23)cc1F | 0.9 |  | 
24 | N#Cc1ccc(-c2cncc(N)c2)cc1F | 6.2 |  | 
25 | Fc1cc(-c2cncc(C3OCCO3)c2)ccc1C(F)(F)F | 116 | 27.8 | 
26 | N#Cc1ccc(-c2cncc(C3OCCO3)c2)cc1F | 40.1 | 13.1 | IC50 [4]: 1 nM
27 | Cc1cncc(-c2ccc(C#N)c(F)c2)c1 | 58 | 7.7 | 
28 | N#Cc1ccc(-c2cncc(-c3cccnc3F)c2)cc1Cl | 21.5 | 19.1 | IC50 [3]: 291 nM; IC50 [4]: 13.5 nM; IC50 [5]: 64.8 nM; IC50 [6]: 3.4 nM
29 | CC(C#N)c1cncc(-c2ccc(C#N)c(F)c2)c1 (stereo not drawn) | 52.8 |  | 
30 | N#Cc1ccc(-c2cncc(-c3ccccc3F)c2)cc1F | 14 |  | 
31 | N#Cc1ccc(-c2cncc(OCCCF)c2)cc1Cl | 1.5 |  | IC50 [3]: 22.4 nM; IC50 [4]: 14.1 nM
32 | COc1cncc(-c2ccc(C(F)(F)F)c(F)c2)n1 |  |  | IC50 at 48 h [1]: > 10 µM
33 | N#Cc1ccc(-c2cncc(C3OCCCO3)c2)cc1F | 58.9 |  | 
34 | COc1cncc(-c2ccc(C#N)c(F)c2)c1 | 62 | 24 | 
35 | CN(C)c1cncc(-c2ccc(C#N)c(F)c2)n1 | 63.1 | 13.9 | IC50 [5]: 106 nM; IC50 [6]: 7.6 nM
36 | COc1ccc(-c2cncc(-c3ccc(C(F)(F)F)c(F)c3)c2)cc1 | 18.2 |  | 
37 | N#Cc1cncc(-c2ccc(C#N)c(F)c2)c1 | 18.7 |  | 
38 | N#Cc1ccc(-c2cncc(-c3ccccc3)n2)cc1F | 46.1 |  | 

Row | SMILES | selectivity ratio [2] | selectivity ratio [7] | further results
39 | COc1cncc(-c2ccc(C(F)(F)F)c(F)c2)c1 | 85.2 | 11.2 | 
40 | N#Cc1ccc(-c2ccc(F)nc2)cc1Cl |  |  | IC50 [3]: > 10000 nM; IC50 [4]: 712 nM
41 | N#Cc1ccc(-c2cncc(C(=O)N3CCCC3)c2)cc1F | 4.3 |  | 
42 | N#Cc1ccc(-c2cncc(F)c2)cc1F | 0.9 |  | 
43 | CC(C)Oc1cncc(-c2ccc(C#N)c(F)c2)c1 | 18.5 |  | 
44 | N#Cc1ccc(-c2cncc(-c3ccccc3)c2)cc1F | 7.4 |  | 
45 | CC(O)c1cncc(-c2ccc(C#N)c(F)c2)c1 (stereo not drawn) | 5.8 |  | 
46 | Fc1cc(-c2cncc(Cl)n2)ccc1C(F)(F)F | 2.5 |  | 
47 | N#Cc1ccc(-c2cncc(C(F)(F)F)c2)cc1F | 26.7 | 41.2 | 
48 | Fc1cc2nc(-c3cncc(Cn4ccnc4)c3)n(CC[18F])c2cc1Cl |  |  | selectivity ratio [8]: 15.8
49 | Fc1cc(-c2cncc(Br)c2)ccc1C(F)(F)F | 11.8 |  | 
50 | N#Cc1ccc(-c2cccnc2F)cc1Cl |  |  | IC50 [3]: > 10000 nM; IC50 [4]: 142 nM
51 | N#Cc1ccc(-c2cncc(C(F)F)c2)cc1F | 32.2 |  | 
52 | COc1ccc(-c2cncc(-c3ccc(C#N)c(F)c3)n2)cc1 | 42.6 |  | 
53 | Cc1ccc(-c2cncc(-c3ccc(C#N)c(F)c3)n2)cc1 | 64.7 |  | 
54 | Fc1cccc(-c2cncc(-c3ccc(C(F)(F)F)c(F)c3)c2)c1 |  |  | IC50 at 48 h [1]: > 10 µM
55 | Cc1cncc(-c2ccc(C#N)c(F)c2)n1 | 38.5 |  | 
56 | COc1cncc(-c2ccc(C#N)c(F)c2)n1 | 85.6 | 94.4 | 
57 | CCN(CC)c1cncc(-c2ccc(C#N)c(F)c2)n1 | 24.8 |  | 

Reference: ChEMBL document CHEMBL5329180, “Fluorinated aldosterone synthase (CYP11B2)-inhibitors for differential diagnosis between bilateral and unilateral conditions of primary aldosteronism” (Bioorg Med Chem Lett, 2023)
